This is an account of results in patent publication US7932270B2 (Cytokinetics, Inc., priority 2006, dated 2011).

Structures are written as SMILES.

The target in the assay is T1, chicken gizzard smooth muscle myosin subfragment-1 chemically crosslinked to cardiac or skeletal actin (Gallus gallus, UniProt P10587).
T1 construct: chicken gizzard smooth muscle myosin subfragment-1; from tissue; host or cells: chicken gizzard
T1 sequence (P02607 2-151): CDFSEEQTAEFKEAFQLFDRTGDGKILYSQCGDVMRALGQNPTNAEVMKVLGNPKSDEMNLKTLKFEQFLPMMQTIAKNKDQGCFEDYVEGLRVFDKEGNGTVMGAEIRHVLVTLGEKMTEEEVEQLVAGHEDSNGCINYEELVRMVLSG
T1 sequence (P10587 84-789): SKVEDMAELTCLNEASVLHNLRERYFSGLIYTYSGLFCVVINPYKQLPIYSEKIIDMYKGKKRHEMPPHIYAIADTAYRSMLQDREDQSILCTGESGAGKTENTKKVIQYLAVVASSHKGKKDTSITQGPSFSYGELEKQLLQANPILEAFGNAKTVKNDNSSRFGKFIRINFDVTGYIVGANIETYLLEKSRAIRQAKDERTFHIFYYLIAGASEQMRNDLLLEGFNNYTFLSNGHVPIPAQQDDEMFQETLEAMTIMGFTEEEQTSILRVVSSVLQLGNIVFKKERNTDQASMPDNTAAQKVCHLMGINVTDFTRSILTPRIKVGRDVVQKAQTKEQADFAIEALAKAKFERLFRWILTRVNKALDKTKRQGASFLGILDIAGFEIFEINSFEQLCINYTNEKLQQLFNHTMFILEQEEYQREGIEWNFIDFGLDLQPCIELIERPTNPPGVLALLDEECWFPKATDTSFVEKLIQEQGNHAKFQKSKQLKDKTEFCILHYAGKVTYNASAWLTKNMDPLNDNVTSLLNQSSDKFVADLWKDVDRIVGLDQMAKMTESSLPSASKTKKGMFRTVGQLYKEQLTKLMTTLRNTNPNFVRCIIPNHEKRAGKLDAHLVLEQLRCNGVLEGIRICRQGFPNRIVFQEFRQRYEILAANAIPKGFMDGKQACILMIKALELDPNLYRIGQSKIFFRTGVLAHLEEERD
In words: Smooth muscle myosin ATPase dose response assay (pyruvate kinase/horseradish peroxidase/pyruvate oxidase-coupled, amplex red fluorescence). Type of assay: biochemical. The settings on record: read-out: IC50 Arithmetic Mean. In a few lines:
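Readout is amplex red signal from coupled ATPase of actin-crosslinked gizzard myosin S1 (0.15 mM ATP, 12 mM K-PIPES, pH 7.00). IC50 is the half-maximal activity point of a four-parameter Hill fit.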
By IC50 is commonly meant the concentration needed to halve the response being measured. `C[C@@H](N)C(=O)N1CCCC[C@@H]1CNC(=O)c1ccc(-c2ccccc2C#N)nc1NCCc1cccc(F)c1` [N-{[(2R)-1-((2R)-2-aminopropanoyl)(2-piperidyl)]methyl}(6-(2-cyanophenyl)-2-{[2-(3-fluorophenyl)ethyl]amino}(3-pyridyl))carboxamide]: the IC50 came out at 261 nM.

Turning to `N#Cc1ccccc1-c1ccc(C(=O)NC[C@H]2CCN2C(=O)C(O)CO)c(NCCc2cccc(F)c2)n1` (stereo partly drawn) [N-{[(2R)-1-(2,3-dihydroxypropanoyl)azetidin-2-yl]methyl}(6-(2-cyanophenyl)-2-{[2-(3-fluorophenyl)ethyl]amino}(3-pyridyl))carboxamide], the IC50 is 51 nM.

Regarding `CC(C)(C)OC(=O)NCCCCC(=O)N1CCC[C@@H]1CNC(=O)c1ccc(-c2ccccc2C#N)nc1NCCc1cccc(F)c1` [N-[((2R)-1-{5-[(tert-butoxy)carbonylamino]pentanoyl}pyrrolidin-2-yl)methyl](6-(2-cyanophenyl)-2-{[2-(3-fluorophenyl)ethyl]amino}(3-pyridyl))carboxamide], the IC50 is 2940 nM.

`Cn1ccc(CNC(=O)c2ccc(-c3ccccc3)nc2NCCc2ccccn2)n1` [N-[(1-methylpyrazol-3-yl)methyl]{6-phenyl-2-[(2-(2-pyridyl)ethyl)amino](3-pyridyl)}carboxamide]: the concentration for half-maximal inhibition (IC50) turned out to be 2730 nM.

Take `COC(=O)CCC(=O)N1CC[C@@H]1CNC(=O)c1ccc(-c2ccccc2C#N)nc1NCCc1cccc(F)c1` [methyl 4-((2R)-2-{[(6-(2-cyanophenyl)-2-{[2-(3-fluorophenyl)ethyl]amino}(3-pyridyl))carbonylamino]methyl}azetidinyl)-4-oxobutanoate]: the IC50 worked out at 519 nM.

Take `N#Cc1ccccc1-c1ccc(C(=O)NC[C@H]2CCCN2S(=O)(=O)CCCN2C(=O)c3ccccc3C2=O)c(NCCc2cccc(F)c2)n1` [N-[((2R)-1-{[3-(1,3-dioxobenzo[c]azolin-2-yl)propyl]sulfonyl}pyrrolidin-2-yl)methyl](6-(2-cyanophenyl)-2-{[2-(3-fluorophenyl)ethyl]amino}(3-pyridyl))carboxamide]: the IC50 is 11300 nM.

For `Cn1cc(-c2nc(NCCc3cccc(F)c3)c(C(=O)NC[C@H]3CCCN3C(=O)CCCN)cc2F)cn1` [N-{[(2R)-1-(4-aminobutanoyl)pyrrolidin-2-yl]methyl}(5-fluoro-2-{[2-(3-fluorophenyl)ethyl]amino}-6-(1-methylpyrazol-4-yl)(3-pyridyl))carboxamide], the IC50 came to 87 nM.

As to `O=C(NC[C@H]1CCCN1C(=O)CCCO)c1ccc(-c2cn[nH]c2)nc1NCCc1cccc(F)c1` [N-{[(2R)-1-(4-hydroxybutanoyl)pyrrolidin-2-yl]methyl}(2-{[2-(3-fluorophenyl)ethyl]amino}-6-pyrazol-4-yl(3-pyridyl))carboxamide], the IC50 came out at 963 nM.

For `N#Cc1cccc(F)c1-c1ccc(C(=O)NCc2cccnc2)c(NCCc2cccc(F)c2)n1` [(6-(2-cyano-6-fluorophenyl)-2-{[2-(3-fluorophenyl)ethyl]amino}(3-pyridyl))-N-(3-pyridylmethyl)carboxamide], the IC50 worked out at 86 nM.

In the case of `O=C(NCc1cccnc1)c1ccc(-c2cccs2)nc1NCCc1cccc(F)c1` [(2-{[2-(3-fluorophenyl)ethyl]amino}-6-(2-thienyl)(3-pyridyl))-N-(3-pyridylmethyl)carboxamide], the IC50 was determined as 137 nM.

As for `Cn1cc(-c2nc(NCCc3cccc(F)c3)c(C(=O)NCc3cccc(CN)n3)cc2Br)cn1` [N-{[6-(aminomethyl)(2-pyridyl)]methyl}(5-bromo-2-{[2-(3-fluorophenyl)ethyl]amino}-6-(1-methylpyrazol-4-yl)(3-pyridyl))carboxamide], the IC50 worked out at 27 nM.

For the compound `CC(C)(C)OC(=O)N1CCC[C@@H]1CNC(=O)c1cc(C#N)c(-c2cn[nH]c2)nc1NCCc1cccc(F)c1` [tert-butyl (2R)-2-{[(5-cyano-2-{[2-(3-fluorophenyl)ethyl]amino}-6-pyrazol-4-yl(3-pyridyl))carbonylamino]methyl}pyrrolidinecarboxylate], the 50% inhibitory concentration (IC50) came out at 6410 nM.

Take `CN1CCN(C(=O)CN)C[C@@H]1CNC(=O)c1ccc(-c2ccccc2C#N)nc1NCCc1cccc(F)c1` [N-{[(2S)-4-(2-aminoacetyl)-1-methylpiperazin-2-yl]methyl}(6-(2-cyanophenyl)-2-{[2-(3-fluorophenyl)ethyl]amino}(3-pyridyl))carboxamide]: the IC50 was 6970 nM.

Take `N#Cc1ccccc1-c1ccc(C(=O)NCc2ccc(N)nc2)c(NCCc2cccc(F)c2)n1` [N-[(6-amino(3-pyridyl))methyl](6-(2-cyanophenyl)-2-{[2-(3-fluorophenyl)ethyl]amino}(3-pyridyl))carboxamide]: the IC50 was 26 nM.

Take `O=C(NCc1cccnc1)c1cc(Br)c(-c2cn[nH]c2)nc1NCCc1cccc(F)c1` [(5-bromo-2-{[2-(3-fluorophenyl)ethyl]amino}-6-pyrazol-4-yl(3-pyridyl))-N-(3-pyridylmethyl)carboxamide]: the IC50 came out at 21 nM.

Regarding `CC(C)(C)OC(=O)NCCn1ccc(CNC(=O)c2ccc(-c3ccccc3C#N)nc2NCCc2cccc(F)c2)n1` [N-[(1-{2-[(tert-butoxy)carbonylamino]ethyl}pyrazol-3-yl)methyl](6-(2-cyanophenyl)-2-{[2-(3-fluorophenyl)ethyl]amino}(3-pyridyl))carboxamide], the half-maximal inhibitory concentration (IC50) stood at 2730 nM.

For `Nc1ccc(CCNc2nc(-c3ccccc3)ccc2C(=O)NCc2cccnc2)cc1` [(2-{[2-(4-aminophenyl)ethyl]amino}-6-phenyl(3-pyridyl))-N-(3-pyridylmethyl)carboxamide], the IC50 came to 27100 nM.

As to `COc1ccc(C#N)c(-c2ccc(C(=O)NCc3cccnc3)c(NCCc3cccc(F)c3)n2)c1` [(6-(2-cyano-5-methoxyphenyl)-2-{[2-(3-fluorophenyl)ethyl]amino}(3-pyridyl))-N-(3-pyridylmethyl)carboxamide], the IC50 came out at 41 nM.

For the compound `[N-]=[N+]=NCc1cc(C(=O)NCc2cccnc2)c(NCCc2cccc(F)c2)nc1-c1ccccc1`, the IC50 stood at 428 nM.

For `CC(C)(C)OC(=O)NCCCN1C(=O)CC[C@@H]1CNC(=O)c1ccc(-c2ccccc2C#N)nc1NCCc1cccc(F)c1` [N-[((2R)-1-{3-[(tert-butoxy)carbonylamino]propyl}-5-oxopyrrolidin-2-yl)methyl](6-(2-cyanophenyl)-2-{[2-(3-fluorophenyl)ethyl]amino}(3-pyridyl))carboxamide], the IC50 was 518 nM.

For `N#Cc1ccccc1-c1nc(NCCc2cccc(F)c2)c(C(=O)NC[C@H]2CCCN2C(=O)C(O)CO)cc1F` (stereo partly drawn) [N-{[(2R)-1-(2,3-dihydroxypropanoyl)pyrrolidin-2-yl]methyl}(6-(2-cyanophenyl)-5-fluoro-2-{[2-(3-fluorophenyl)ethyl]amino}(3-pyridyl))carboxamide], the IC50 came to 110 nM.

On to `N#Cc1ccccc1-c1ccc(C(=O)NC[C@H]2CCCN2C(=O)CCCN)c(NCCC2CCCCO2)n1` (some centres unmarked), for which the IC50 was determined as 2040 nM.

`CN(C)c1ccc(-c2ccc(C(=O)NCc3cccnc3)c(NCCc3ccccn3)n2)cc1` [{6-[4-(dimethylamino)phenyl]-2-[(2-(2-pyridyl)ethyl)amino](3-pyridyl)}-N-(3-pyridylmethyl)carboxamide]: the IC50 turned out to be 809 nM.

Regarding `N#Cc1ccccc1-c1ccc(C(=O)NC[C@H]2CCC(=O)N2CCCCCN2C(=O)c3ccccc3C2=O)c(NCCc2cccc(F)c2)n1` [N-({(2R)-1-[5-(1,3-dioxobenzo[c]azolin-2-yl)pentyl]-5-oxopyrrolidin-2-yl}methyl)(6-(2-cyanophenyl)-2-{[2-(3-fluorophenyl)ethyl]amino}(3-pyridyl))carboxamide], the IC50 amounted to 266 nM.

Regarding `O=C(NCc1cccnc1)c1ccc(-c2ccccc2)nc1NCC1CCCO1` (centres unmarked) [{2-[(oxolan-2-ylmethyl)amino]-6-phenyl(3-pyridyl)}-N-(3-pyridylmethyl)carboxamide], the half-maximal inhibitory concentration (IC50) worked out at 4830 nM.

Consider `N#Cc1ccccc1-c1ccc(C(=O)NC[C@H]2CN(C(=O)CCN)CCN2)c(NCCc2cccc(F)c2)n1` [N-{[(2S)-4-(3-aminopropanoyl)piperazin-2-yl]methyl}(6-(2-cyanophenyl)-2-{[2-(3-fluorophenyl)ethyl]amino}(3-pyridyl))carboxamide], for which the IC50 came out at 11200 nM.

`N#Cc1ccccc1-c1ccc(C(=O)NCc2ncccc2CN)c(NCCc2cccc(F)c2)n1` [N-{[3-(aminomethyl)(2-pyridyl)]methyl}(6-(2-cyanophenyl)-2-{[2-(3-fluorophenyl)ethyl]amino}(3-pyridyl))carboxamide]: the IC50 is 624 nM.

On to `CC(C)(C)OC(=O)N1CC[C@@H]1CNC(=O)c1ccc(-c2cn[nH]c2)nc1NCCc1cccc(F)c1` [tert-butyl (2R)-2-{[(2-{[2-(3-fluorophenyl)ethyl]amino}-6-pyrazol-4-yl(3-pyridyl))carbonylamino]methyl}azetidinecarboxylate], for which the IC50 turned out to be 525 nM.

Take `O=C(O)c1cccc(CCNc2nc(-c3ccccc3)ccc2C(=O)NCc2cccnc2)c1` [3-[2-({6-phenyl-3-[N-(3-pyridylmethyl)carbamoyl]-2-pyridyl}amino)ethyl]benzoic acid]: the half-maximal inhibitory concentration (IC50) worked out at 21900 nM.

Turning to `CC(C)(CNC(=O)c1ccc(-c2ccccc2C#N)nc1NCCc1cccc(F)c1)NS(C)(=O)=O` [(6-(2-cyanophenyl)-2-{[2-(3-fluorophenyl)ethyl]amino}(3-pyridyl))-N-{2-methyl-2-[(methylsulfonyl)amino]propyl}carboxamide], the 50% inhibitory concentration (IC50) worked out at 1470 nM.

For `N#Cc1ccccc1-c1ccc(C(=O)NCC(=O)NCCC(N)=O)c(NCCc2cccc(F)c2)n1` [N-(2-carbamoylethyl)-2-[(6-(2-cyanophenyl)-2-{[2-(3-fluorophenyl)ethyl]amino}(3-pyridyl))carbonylamino]acetamide], the IC50 came to 12200 nM.

Take `Cn1cc(-c2nc(NCCc3cccc(F)c3)c(C(=O)NC[C@H]3CCCN3C(=O)[C@H](CO)NC(=O)OC(C)(C)C)cc2F)cn1` [N-[2-((2R)-2-{[(5-fluoro-2-{[2-(3-fluorophenyl)ethyl]amino}-6-(1-methylpyrazol-4-yl)(3-pyridyl))carbonylamino]methyl}pyrrolidinyl)(1S)-1-(hydroxymethyl)-2-oxoethyl](tert-butoxy)carboxamide]: the IC50 was determined as 1200 nM.
